Source: the NIST ThermoML archive (doi:10.1021/je400783h)
± gives the expanded uncertainty stated by the source.

Details: for mass density / vapor or sublimation pressure / viscosity / speed of sound: Liquid; for vapor or sublimation pressure: Ebulliometric method (Recirculating still); for surface tension liquid-gas: Drop volume; for viscosity: Capillary tube (Ostwald / Ubbelohde) method; for speed of sound: Pulse-echo method

OCC1CCCO1 (stereo not given) [2-tetrahydrofurylmethanol]
Details | mass density [kg/m3] | speed of sound [m/s] | viscosity [mPa·s]
313.15 K, 7500 kPa | 1041.89 ± 0.46 | – | –
313.15 K, 10000 kPa | 1043.41 ± 0.48 | – | –
313.15 K, 20000 kPa | 1048.93 ± 0.57 | – | –
313.15 K, 30000 kPa | 1054.21 ± 0.68 | – | –
313.15 K, 40000 kPa | 1059.19 ± 0.81 | – | –
313.15 K, 50000 kPa | 1063.91 ± 0.94 | – | –
313.15 K, 60000 kPa | 1068.44 ± 1.1 | – | –
315.65 K, 101.33 kPa | – | 1424.1 ± 1.2 | 3.374 ± 0.072
318.15 K, 100 kPa | 1032.83 ± 0.39 | – | –
318.15 K, 101.33 kPa | – | 1415.4 ± 1.2 | 3.177 ± 0.067
318.15 K, 2500 kPa | 1034.57 ± 0.41 | – | –
318.15 K, 5000 kPa | 1036.11 ± 0.42 | – | –
318.15 K, 7500 kPa | 1037.62 ± 0.44 | – | –
318.15 K, 10000 kPa | 1039.11 ± 0.46 | – | –
318.15 K, 20000 kPa | 1044.81 ± 0.55 | – | –
318.15 K, 30000 kPa | 1050.15 ± 0.65 | – | –
318.15 K, 40000 kPa | 1055.24 ± 0.77 | – | –
318.15 K, 50000 kPa | 1060.12 ± 0.91 | – | –
318.15 K, 60000 kPa | 1064.68 ± 1.1 | – | –
320.65 K, 101.33 kPa | – | 1406.8 ± 1.2 | 2.996 ± 0.064
323.15 K, 100 kPa | 1028.47 ± 0.39 | – | –
323.15 K, 101.33 kPa | – | 1398.1 ± 1.2 | 2.83 ± 0.06
323.15 K, 2500 kPa | 1030.3 ± 0.4 | – | –
323.15 K, 5000 kPa | 1031.87 ± 0.41 | – | –
323.15 K, 7500 kPa | 1033.41 ± 0.43 | – | –
323.15 K, 10000 kPa | 1034.93 ± 0.45 | – | –
323.15 K, 20000 kPa | 1040.79 ± 0.53 | – | –
323.15 K, 30000 kPa | 1046.28 ± 0.63 | – | –
323.15 K, 40000 kPa | 1051.44 ± 0.74 | – | –
323.15 K, 50000 kPa | 1056.41 ± 0.87 | – | –
323.15 K, 60000 kPa | 1061.07 ± 1 | – | –
325.65 K, 101.33 kPa | – | 1389.4 ± 1.2 | 2.677 ± 0.057
328.15 K, 100 kPa | 1024.08 ± 0.38 | – | –
328.15 K, 101.33 kPa | – | 1380.8 ± 1.2 | 2.535 ± 0.054
328.15 K, 2500 kPa | 1025.88 ± 0.39 | – | –
328.15 K, 5000 kPa | 1027.49 ± 0.4 | – | –
328.15 K, 7500 kPa | 1029.13 ± 0.42 | – | –
328.15 K, 10000 kPa | 1030.63 ± 0.43 | – | –
328.15 K, 20000 kPa | 1036.6 ± 0.51 | – | –
328.15 K, 30000 kPa | 1042.2 ± 0.6 | – | –
328.15 K, 40000 kPa | 1047.5 ± 0.71 | – | –
328.15 K, 50000 kPa | 1052.52 ± 0.83 | – | –
328.15 K, 60000 kPa | 1057.3 ± 0.97 | – | –
330.65 K, 101.33 kPa | – | 1372.1 ± 1.2 | 2.404 ± 0.051
333.15 K, 100 kPa | 1019.68 ± 0.37 | – | –
333.15 K, 101.33 kPa | – | 1363.5 ± 1.2 | 2.282 ± 0.049
333.15 K, 2500 kPa | 1021.52 ± 0.38 | – | –
333.15 K, 5000 kPa | 1023.18 ± 0.39 | – | –
333.15 K, 7500 kPa | 1024.84 ± 0.4 | – | –
333.15 K, 10000 kPa | 1026.39 ± 0.42 | – | –
333.15 K, 20000 kPa | 1032.49 ± 0.49 | – | –
333.15 K, 30000 kPa | 1038.22 ± 0.58 | – | –
333.15 K, 40000 kPa | 1043.64 ± 0.68 | – | –
333.15 K, 50000 kPa | 1048.73 ± 0.8 | – | –
333.15 K, 60000 kPa | 1053.6 ± 0.93 | – | –
335.65 K, 101.33 kPa | – | 1354.8 ± 1.2 | 2.169 ± 0.046
338.15 K, 100 kPa | 1015.24 ± 0.36 | – | –
338.15 K, 101.33 kPa | – | 1346.2 ± 1.2 | 2.064 ± 0.044
338.15 K, 2500 kPa | 1017.04 ± 0.37 | – | –
338.15 K, 5000 kPa | 1018.75 ± 0.38 | – | –
338.15 K, 7500 kPa | 1020.45 ± 0.39 | – | –
338.15 K, 10000 kPa | 1022.06 ± 0.4 | – | –
338.15 K, 20000 kPa | 1028.31 ± 0.47 | – | –
338.15 K, 30000 kPa | 1034.16 ± 0.55 | – | –
338.15 K, 40000 kPa | 1039.68 ± 0.65 | – | –
338.15 K, 50000 kPa | 1044.89 ± 0.76 | – | –
338.15 K, 60000 kPa | 1049.83 ± 0.88 | – | –

Details | surface tension liquid-gas [mN/m] | vapor or sublimation pressure [kPa]
313.15 K | – | 0.21 ± 0.1
315.65 K | 35.74 ± 0.26 | –
318.15 K | 35.48 ± 0.26 | 0.31 ± 0.1
320.65 K | 35.23 ± 0.26 | –
323.15 K | 34.98 ± 0.26 | 0.43 ± 0.1
325.65 K | 34.72 ± 0.25 | –
328.15 K | 34.47 ± 0.25 | 0.63 ± 0.1
330.65 K | 34.22 ± 0.25 | –
333.15 K | 33.96 ± 0.25 | 0.86 ± 0.1
335.65 K | 33.71 ± 0.25 | –
338.15 K | 33.46 ± 0.25 | 1.15 ± 0.1
343.15 K | – | 1.55 ± 0.1
348.15 K | – | 2.11 ± 0.1
353.15 K | – | 2.72 ± 0.1
358.15 K | – | 3.53 ± 0.1
363.15 K | – | 4.51 ± 0.1
368.15 K | – | 5.72 ± 0.1
373.15 K | – | 7.22 ± 0.1
378.15 K | – | 9.11 ± 0.1
383.15 K | – | 11.18 ± 0.1
388.15 K | – | 13.68 ± 0.1
393.15 K | – | 16.64 ± 0.1
398.15 K | – | 20.17 ± 0.1
403.15 K | – | 24.22 ± 0.1
408.15 K | – | 28.63 ± 0.11
413.15 K | – | 34.22 ± 0.11
418.15 K | – | 40.19 ± 0.11
423.15 K | – | 47.32 ± 0.12
428.15 K | – | 56.31 ± 0.12
433.15 K | – | 65.02 ± 0.13
438.15 K | – | 74.02 ± 0.13
443.15 K | – | 84.98 ± 0.14
448.15 K | – | 97.93 ± 0.15

101.33 kPa, Vibrating tube method
Details | mass density [kg/m3]
315.65 K | 1035 ± 0.27
318.15 K | 1032.83 ± 0.27
320.65 K | 1030.65 ± 0.27
323.15 K | 1028.47 ± 0.27
325.65 K | 1026.28 ± 0.27
328.15 K | 1024.08 ± 0.26
330.65 K | 1021.88 ± 0.26
333.15 K | 1019.68 ± 0.26
335.65 K | 1017.46 ± 0.26
338.15 K | 1015.24 ± 0.26
